Assay [1] has as its target SARM1 SAM-TIR (Homo sapiens (Human), UniProt Q6SZW1). As to the kind of experiment: biochemical. The format is biochemical. As to conditions: SAM-TIR lysate 5 μg/mL, 2 hr pre-incubation, 5 μM NAD+, RapidFire MS.
Assay [2] relates to mouse dorsal root ganglion (DRG) axons. As to the kind of experiment: Axon degeneration assay in mouse DRG drop culture. The following applies: protection of axon fragmentation, axonal transection or chemotoxic stimuli. The format is cell-based. Here is the method:
This Example illustrates an in vitro axon degeneration assay used to characterize compounds of Formula I. This assay is used to test the efficacy of the compounds of Formula I to prevent axonal degeneration in a mouse dorsal root ganglion (DRG) drop culture.
Mouse dorsal root ganglion neurons (DRGs) were dissected out of E12.5 CD1 mice (50 ganglion per embryo) and incubated with 0.5% Trypsin solution containing 0.02% EDTA (Gibco) at 37° C. for 15 min. The cells were then triturated by gentle pipetting and washed 3 times with DRG growth medium (Neurobasal medium (Gibco) containing 2% B27 (Invitrogen), 100 ng/ml 2.5S NGF (Harland Bioproducts), […] 5-fluoro-2′deoxyuridine (Sigma), penicillin, and streptomycin). Cells were suspended in the DRG growth medium. DRG drop cultures were created by spotting 5000 cells/well into the center of each well of a 96-well tissue culture plate coated with poly-D-Lysine (0.1 mg/ml; Sigma) and laminin ([…]; Invitrogen). Cells were allowed to adhere to the plates in a humidified tissue culture incubator (5% CO2) for 15 min and then DRG growth medium was gently added ([…]).
Axonal degeneration was stimulated either by manual axonal transection using a scalpel blade, or chemotoxic stimuli. After an appropriate experimental time period, the DRG cultures were fixed in 1% PFA plus sucrose and kept in the fridge prior to imaging. Bright-field images of DRG axons and cell bodies were collected using the 20x water immersion lens of a Phenix automated confocal microscope (PerkinElmer) and quantitation of axonal performed using in-house developed scripts (Acapella, PerkinElmer).

Chain of SARM1 SAM-TIR (Q6SZW1 409-724): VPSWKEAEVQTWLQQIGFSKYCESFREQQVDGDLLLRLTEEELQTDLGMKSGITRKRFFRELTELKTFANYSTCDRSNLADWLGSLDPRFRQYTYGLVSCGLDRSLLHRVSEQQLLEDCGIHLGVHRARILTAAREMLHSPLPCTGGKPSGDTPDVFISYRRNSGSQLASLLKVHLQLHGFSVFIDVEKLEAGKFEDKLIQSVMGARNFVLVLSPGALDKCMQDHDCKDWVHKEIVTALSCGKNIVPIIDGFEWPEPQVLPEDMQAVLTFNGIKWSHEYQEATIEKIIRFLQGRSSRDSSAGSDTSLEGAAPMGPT

Broadly, the IC50 is the midpoint of a concentration-inhibition curve. As for `Nc1cccc2c(Br)cncc12` [Example 52], the IC50 in assay [1] was greater than 30 µM.

In turn, `CC(C)Oc1cccc2cnccc12` [Example 25] registered an IC50 in assay [1] greater than 30 µM.

Molecule `O=c1[nH]ccc2ccc(O)cc12` [Example 39] showed an IC50 in assay [1] greater than 30 µM.

In turn, `Clc1ccc(Br)c2cnccc12` [Example 34] came in with an IC50 in assay [1] of 15 to 30 µM.

The molecule `Cc1nccc2c(Br)c[nH]c(=O)c12` [Example 76] came in with an IC50 in assay [1] of 15 to 30 µM.

In assay [1], `Brc1cncc2ccccc12` [Example 2] displayed a half-maximal inhibitory concentration (IC50) of 15 to 30 µM.

In assay [1], `Ic1cccc2cnncc12` [Example 64] registered an IC50 of less than 5 µM.

In turn, `Oc1cccc2cnccc12` [Example 44] displayed a concentration for half-maximal inhibition (IC50) in assay [1] of less than 5 µM.

In the case of `Oc1ccc(Br)c2ccncc12` [Example 65], in assay [1], the half-inhibitory concentration (IC50) was less than 5 µM.

Take `Clc1cccc2cnccc12` [Example 42]: the IC50 in assay [2] was 10 to 30 µM; in assay [1], less than 5 µM.

For `COc1ncc(Br)c2ccncc12` [Example 21], the IC50 in assay [1] fell in the range of 5 to 15 µM.

In assay [1], `O=c1[nH]cc(Br)c2ccncc12` [Example 4] yielded an IC50 of less than 5 µM.

For the molecule `Brc1cccc2cnccc12` [Example 8], the results for the 50% inhibitory concentration (IC50) in assay [2] and in assay [1] were less than 10 µM and less than 5 µM, respectively.

On to `NCc1cccc2cnccc12` [Example 50], for which, in assay [1], the IC50 was in the range of 15 to 30 µM.

Molecule `O=c1[nH]cc(I)c2ccncc12` [Example 3] returned an IC50 in assay [1] of less than 5 µM.

For `O=S(=O)(Nc1nccc2c(Br)cccc12)C1CC1` [Example 77], the IC50 in assay [1] fell in the range of 15 to 30 µM.

In turn, `O=c1[nH]ccc2c(Br)cccc12` [Example 33] had an IC50 in assay [1] of 5 to 15 µM.

For the molecule `CC(C)(O)c1cccc2cnccc12` [Example 82], in assay [1], the IC50 was greater than 30 µM.

For `c1ccc2nnccc2c1` [Example 43], the IC50 in assay [1] is less than 5 µM.

Take `COC(=O)c1cccc2cnccc12` [Example 51]: the IC50 in assay [1] was greater than 30 µM.

On to `Nc1nccc2c(Br)cccc12` [Example 55], for which, in assay [1], the IC50 is less than 5 µM.

In assay [1], `O=c1[nH]cc([N+](=O)[O-])c2ccncc12` [Example 80] returned an IC50 greater than 30 µM.

`Fc1cc(Cl)c2ccncc2c1` [Example 30]: in assay [1], the 50% inhibitory concentration (IC50) is less than 5 µM.

`FC(F)(F)c1cccc2cnccc12` [Example 61] came in with an IC50 in assay [1] greater than 30 µM.

`Nc1cncc2ccccc12` [Example 63] yielded an IC50 in assay [1] of 5 to 15 µM.

`CCn1cc(Br)c2ccncc2c1=O` [Example 20] showed an IC50 in assay [1] of 5 to 15 µM.

`Nc1ccc2cnccc2c1Cl` [Example 9] came in with an IC50 in assay [1] of 15 to 30 µM.

On to `Brc1cccc2cnncc12` [Example 10], for which the IC50 in assay [1] is less than 5 µM.

`Nc1cccc2cnncc12` [Example 37] had an IC50 in assay [1] of 15 to 30 µM.

In assay [1], `Nc1ncc(Br)c2ccncc12` [Example 46] registered an IC50 of less than 5 µM.

In the case of `Brc1cccc2cncnc12` [Example 60], the IC50 in assay [1] is greater than 30 µM.

For `Oc1cc2c(Br)cccc2cn1` [Example 14], in assay [1], the IC50 was greater than 30 µM.

In turn, `Cc1cncc2ccccc12` [Example 17] had an IC50 in assay [1] of 5 to 15 µM.

The molecule `COc1cccc2cnccc12` [Example 49] had an IC50 in assay [1] of 5 to 15 µM.

In the case of `Brc1ccnc2cnccc12` [Example 67], the IC50 in assay [1] is less than 5 µM.

In assay [1], `c1cc(C2CC2)c2ccncc2c1` [Example 19] showed an IC50 of 5 to 15 µM.

As for `Nc1c[nH]c(=O)c2cnccc12` [Example 75], the IC50 in assay [1] fell in the range of 15 to 30 µM.

On to `Nc1cccc2cncc(Br)c12` [Example 35], for which the concentration for half-maximal inhibition (IC50) in assay [1] was in the range of 15 to 30 µM.

With `CNc1ncc(Br)c2ccncc12` [Example 68], the IC50 in assay [1] is less than 5 µM.

With `Nc1ccc(Br)c2ccncc12` [Example 12], in assay [1], the IC50 is less than 5 µM.

Molecule `O=c1[nH]ncc2ccc(F)cc12` [Example 7] showed an IC50 in assay [1] greater than 30 µM.

In assay [1], `O=c1cc(Br)c2ccncc2[nH]1` [Example 29] yielded an IC50 of less than 5 µM.

Consider `CC(=O)c1cccc2cnccc12` [Example 79], for which the IC50 in assay [1] was in the range of 15 to 30 µM.

`Cc1nccc2c(Br)cccc12` [Example 53] displayed an IC50 in assay [1] greater than 30 µM.

Consider `COc1cc(Br)c2ccncc2n1` [Example 69], for which the IC50 in assay [1] is less than 5 µM.

`Brc1ccc2cnncc2c1` [Example 16] returned an IC50 in assay [1] greater than 30 µM.

Consider `Nc1ccc(Cl)c2ccncc12` [Example 32], for which the IC50 in assay [1] was less than 5 µM.

Consider `Nc1nccc2c(C3CC3)cccc12` [Example 84], for which the IC50 in assay [1] was greater than 30 µM.

For the molecule `CSc1cccc2cnccc12` [Example 74], in assay [1], the IC50 lay in the range of 5 to 15 µM.

On to `Brc1cncc2cnccc12` [Example 70], for which the IC50 in assay [1] was less than 5 µM.

As for `Cc1cc2c(N)cccc2cn1` [Example 58], the IC50 in assay [1] is 5 to 15 µM.

`COc1ccc(Br)c2ccncc12` [Example 15] came in with an IC50 in assay [1] of less than 5 µM.

With `Nc1nccc2ccncc12` [Example 38], the IC50 in assay [1] is greater than 30 µM.

The molecule `CC(C)c1c[nH]c(=O)c2cnccc12` [Example 22] returned an IC50 in assay [1] of 5 to 15 µM.

With `c1ccc2cnccc2c1` [Example 48], the IC50 in assay [1] lay in the range of 5 to 15 µM.

Regarding `Ic1cccc2cnccc12` [Example 26], the IC50 in assay [2] is less than 10 µM.

The molecule `Clc1ccnc2cnccc12` [Example 41] yielded a 50% inhibitory concentration (IC50) in assay [1] of less than 5 µM.

Turning to `O=[N+]([O-])c1cccc2cnccc12` [Example 47], in assay [1], the IC50 was in the range of 5 to 15 µM.

`COc1ncc(C2CC2)c2ccncc12` [Example 24] came in with an IC50 in assay [1] greater than 30 µM.

In assay [1], `Nc1nccc2c(I)cccc12` [Example 18] returned an IC50 of less than 5 µM.

`OCc1cccc2cnccc12` [Example 45] registered an IC50 in assay [1] of less than 5 µM.

In assay [1], `COc1c[nH]c(=O)c2cnccc12` [Example 28] came in with an IC50 greater than 30 µM.

With `COc1cccc2ccncc12` [Example 56], the IC50 in assay [1] is less than 5 µM.

`COc1cccc2cnncc12` [Example 73] returned a half-inhibitory concentration (IC50) in assay [1] of 5 to 15 µM.

`Cc1cncc2cccc(Br)c12` [Example 13] came in with an IC50 in assay [1] of 5 to 15 µM.

In assay [1], `Nc1ccc(O)c2cnccc12` [Example 62] had an IC50 of less than 5 µM.

Take `O=c1[nH]cnc2ccncc12` [Example 78]: the half-inhibitory concentration (IC50) in assay [1] lay in the range of 15 to 30 µM.

Take `Oc1cccc2ccncc12` [Example 11]: the IC50 in assay [1] is less than 5 µM.

As to `COc1cc2cc[nH]c(=O)c2cc1F` [Example 40], the IC50 in assay [1] is greater than 30 µM.

Consider `Cn1cc(Br)c2ccncc2c1=O` [Example 66], for which, in assay [1], the IC50 is less than 5 µM.

For `c1cc2ccncc2cn1` [Example 36], the IC50 in assay [1] lay in the range of 15 to 30 µM.

In assay [1], `Clc1ccc(Cl)c2cnccc12` [Example 57] came in with an IC50 of 5 to 15 µM.

In assay [1], `CN(C)c1nccc2c(Br)cccc12` [Example 23] showed an IC50 greater than 30 µM.

Molecule `CNc1nccc2c(Br)cccc12` [Example 27] returned an IC50 in assay [1] greater than 30 µM.

With `Clc1ncc(Br)c2ccncc12` [Example 81], the IC50 in assay [1] is greater than 30 µM.

With `CNC(=O)Nc1ncc(Br)c2ccncc12` [Example 72], the IC50 in assay [1] was 5 to 15 µM.

On to `Nc1ccnc2cnccc12` [Example 71], for which, in assay [1], the IC50 fell in the range of 5 to 15 µM.

In assay [1], `O=c1[nH]ccc2ccncc12` [Example 5] gave an IC50 of less than 5 µM.

Regarding `Oc1cncc2ccccc12` [Example 59], the half-maximal inhibitory concentration (IC50) in assay [1] was in the range of 15 to 30 µM.

In assay [1], `O=c1[nH]cc(Br)c2cc[n+]([O-])cc12` [Example 83] yielded a 50% inhibitory concentration (IC50) greater than 30 µM.

Turning to `O=C(O)c1ccnc2cnccc12` [Example 54], the IC50 in assay [1] was in the range of 15 to 30 µM.

Turning to `C#Cc1cccc2cnccc12` [Example 85], in assay [1], the 50% inhibitory concentration (IC50) is less than 5 µM.

For the origin of these results see patent US12338238B2, “Inhibitors of SARM1” (Disarm Therapeutics, Inc., priority 2018, dated 2025).
